The values below come from ChEMBL document CHEMBL5260828, “Amphiphilic glycoconjugates as potential anti-cancer chemotherapeutics” (Eur J Med Chem, 2018).

Common to all, as to assay type: functional, cell-based
Experiment [1] has as its system HeLa S3. As to the kind of experiment: Cytotoxicity against human HeLa S3 cells.
The subject of the next experiment is P388/ADM. As to the kind of experiment: Cytotoxicity against mouse P388/ADM cells.
The test system of the next experiment is B16. As to the kind of experiment: Cytotoxicity against mouse B16 cells.
The test system of another experiment is P388. As to the kind of experiment: Cytotoxicity against mouse P388 cells.
The subject of a further experiment is NCI-H69. The experiment is described as follows: Cytotoxicity against human NCI-H69 cells.
The next experiment has as its system MIA PaCa-2. As to the kind of experiment: Cytotoxicity against human MIA PaCa-2 cells assessed as inhibition of cell growth incubated for 72 hrs by CellTiter 96 aqueous one solution assay. The settings on record: MIA PaCa-2, 72 h.
A further experiment relates to PK9. The experiment is described as follows: Cytotoxicity against human PK9 cells assessed as inhibition of cell growth incubated for 72 hrs by CellTiter 96 aqueous one solution assay. Particulars: PK9, 72 h.
For a further experiment, the system named is HeLa. The experiment is described as follows: Cytotoxicity against human HeLa cells assessed as inhibition of cell proliferation incubated for 72 hrs by MTT assay.
A further experiment deals with HL-60. As to the kind of experiment: Cytotoxicity against human HL-60 cells assessed as inhibition of cell proliferation incubated for 72 hrs by MTT assay. Particulars: HL-60, 72 h. (In general: Tetrazolium assays rely on reduction of a dye to a coloured formazan, in cell work by metabolically active cells.)
The subject of the next experiment is HCT-116. As to the kind of experiment: Cytotoxicity against human HCT-116 cells assessed as cell growth inhibition incubated for 72 hrs by celltiter 96 aqueous cell proliferation assay. The settings on record: HCT-116, 72 h.
In experiment [2] the test system is HeLa S3. The experiment is described as follows: Cytotoxicity against human HeLa S3 cells assessed as inhibition of cell proliferation incubated for 72 hrs by MTT assay. Particulars: HeLa S3, 72 h.
The mark [3] stands for this setting: Homo sapiens, HeLa S3, read-out: IC50.
Where [4] appears, read: Mus musculus, P388/ADM, read-out: IC50.
The mark [5] stands for this setting: Mus musculus, B16, read-out: IC50.
Where [6] appears, read: Mus musculus, P388, read-out: IC50.
Setting [7] is: Homo sapiens, NCI-H69, read-out: IC50.

Converted amounts (≈) assume the structure as drawn. Some results are limits rather than exact numbers.

On to `C/C=C(\C)[C@H](O[C@@H]1O[C@H](CO)[C@@H](O)[C@H](O)[C@H]1O)[C@H](C)/C=C(C)/C=C/C/C(C)=C/Cc1nc(OC)c(OC)c(O)c1C`, for which the 50% inhibitory concentration (IC50) with HeLa S3 [1] (setting [3]) stood at 0.11 µg/mL (≈ 0.19 µM); in the experiment on P388/ADM (setting [4]) it was 0.25 µg/mL (≈ 0.433 µM); in the experiment on B16 (setting [5]), 0.0074 µg/mL (≈ 0.0128 µM); with P388 (setting [6]), 0.36 µg/mL (≈ 0.623 µM); in the experiment with NCI-H69 (setting [7]), 0.019 µg/mL (≈ 0.0329 µM).
For the compound `CCCCCCCCCCCCc1cn(CC[C@H]2NC[C@@H](O)[C@H]2O)nn1`, the IC50 in the experiment with MIA PaCa-2 and in the experiment with PK9 was 19 µM in each case.
In the case of `CCCCCCCCCCCCc1cn(C[C@@H]2N[C@@H](C)[C@@H](O)[C@H]2O)nn1`, the IC50 in the experiment with MIA PaCa-2 and with PK9 was 19 µM throughout.
`C/C=C/C/C(C)=C\[C@H]1C/C=C/C=C/C[C@H](C)/C=C(\C)[C@@H](OC)C/C=C/[C@@H](O)CC(=O)O1`: the 50% inhibitory concentration (IC50) amounted to 0.049 µM in the experiment with HeLa and 0.03 µM with HL-60.
In the case of `COc1nc(C/C=C(\C)C/C=C/C(C)=C/[C@@H](C)[C@@H](O[C@@H]2O[C@H](CO)[C@@H](O)[C@H](O)[C@H]2O)/C(C)=C/CO)c(C)c(O)c1OC`, the IC50 was 0.76 µg/mL (≈ 1.28 µM) in the experiment with HeLa S3 [1] (setting [3]); 0.78 µg/mL (≈ 1.31 µM) with P388/ADM (setting [4]); 0.21 µg/mL (≈ 0.354 µM) in the experiment with B16 (setting [5]); 1.6 µg/mL (≈ 2.69 µM) in the experiment with P388 (setting [6]); 0.066 µg/mL (≈ 0.111 µM) with NCI-H69 (setting [7]).
With `CCCCCCCCCCCCc1cn(C[C@H]2NC[C@H](O)[C@@H]2O)nn1`, the half-maximal inhibitory concentration (IC50) in the experiment on MIA PaCa-2 and in the experiment with PK9 was 19 µM in each case.
In the case of `C/C=C/C/C(C)=C\[C@H]1C/C=C/C=C/C[C@H](C)/C=C(\C)[C@@H](OC)CCC[C@@H](O)CC(=O)O1`, the concentration for half-maximal inhibition (IC50) in the experiment on HeLa came to 0.046 µM; in the experiment on HL-60 it was 0.024 µM.
Consider `CO[C@@H]1/C=C(\C)C[C@H](/C=C/C#C[C@H]2C[C@@H]2Cl)OC(=O)[C@@H](C)[C@]2(O)C[C@H](O[C@@H]3O[C@@H](C)[C@H](O)[C@@](C)(O)[C@H]3O[C@@H]3O[C@@H](C)[C@H](O)[C@@](C)(O)[C@H]3OC)[C@@H](C)[C@@H](O2)[C@@H]1C`, for which the half-maximal inhibitory concentration (IC50) in the experiment on HCT-116 came to 10.2 µM.
In the case of `CCCCCCCC/C=C\CCCCCCCCNC(=O)[C@H]1[C@@H]2OC(C)(C)O[C@@H]2[C@](C)(CO)N1CCCC`, the IC50 with MIA PaCa-2 was 3.6 µM; in the experiment on PK9 it was 17 µM.
With `C/C=C/C/C(C)=C\[C@H]1C/C=C/C=C/C[C@H](C)/C=C(\C)[C@@H](OC)CCC[C@@H](O[C@@H]2O[C@H](CO)[C@@H](O)[C@H](OC)[C@H]2O)CC(=O)O1`, the 50% inhibitory concentration (IC50) is 0.19 µM in the experiment on HeLa and 0.071 µM with HL-60.
Consider `C=C1[C@@H](OC)C/C=C/[C@@H](O[C@@H]2O[C@H](CO)[C@@H](O)[C@H](OC)[C@H]2O)CC(=O)O[C@@H](/C=C(/C)C/C=C/C)C/C=C/C=C/C[C@H](C)[C@@H]1OO`, for which the IC50 with HeLa S3 [2] was over 10 µM.
Consider `C/C=C/C/C(C)=C\[C@H]1C/C=C/C=C/C[C@H](C)/C=C(\C)[C@@H](OC)C[C@@H](O)C[C@@H](O[C@@H]2O[C@H](CO)[C@@H](O)[C@H](OC)[C@H]2O)CC(=O)O1`, for which the values for the IC50 with HeLa S3 [2] and in the experiment on HL-60 were 6.5 µM and 0.04 µM, respectively.
As for `C/C=C/C/C(C)=C/[C@H]1C/C=C/C=C/C[C@H](C)/C=C(\C)[C@@H](OC)C/C=C/[C@@H](O[C@@H]2O[C@H](CO)[C@@H](O)[C@H](OC)[C@H]2O)CC(=O)O1`, the figures for the IC50 with HeLa and in the experiment on HL-60 were 3.1 µM and 0.66 µM, respectively.
For `C/C=C(\C)C(O[C@@H]1O[C@H](CO)[C@@H](O)[C@H](O)[C@H]1O)C(C)/C=C(C)/C=C/CC(C)(O)/C=C/c1nc(OC)c(OC)c(O)c1C` (stereo in doubt; 283), the half-maximal inhibitory concentration (IC50) in the experiment with HeLa S3 [1] (setting [3]) is 0.62 µg/mL (≈ 1.04 µM); with P388/ADM (setting [4]) it was 4.3 µg/mL (≈ 7.24 µM); with B16 (b16) it was 0.32 µg/mL (≈ 0.539 µM); in the experiment on P388 (p388) it was 0.58 µg/mL (≈ 0.977 µM); in the experiment on NCI-H69 (setting [7]), 0.47 µg/mL (≈ 0.792 µM).
As to `C/C=C(\C)C(O[C@@H]1O[C@H](CO)[C@@H](O)[C@H](O)[C@H]1O)C(C)/C=C(C)/C=C/CC(C)(O)/C=C/c1nc(OC)c(OC)c(O)c1C` (stereo in doubt; 284), the concentration for half-maximal inhibition (IC50) with HeLa S3 [1] (hela s3) came to 0.98 µg/mL (≈ 1.65 µM); in the experiment on P388/ADM (p388/adm), 4.2 µg/mL (≈ 7.07 µM); with B16 (b16) it was 0.67 µg/mL (≈ 1.13 µM); with P388 (p388), 2.5 µg/mL (≈ 4.21 µM); in the experiment with NCI-H69 (nci-h69), 0.83 µg/mL (≈ 1.4 µM).

The IC50 is the point on the concentration scale where inhibition reaches its midpoint.
